Experimental data taken from patent publication US20240423961A1, “1H-1,2,3-TRIAZOLE-4-CARBOXYLIC ACIDS FOR TREATMENT OF HYPEROXALURIA AND KIDNEY STONES” (CANTERO THERAPEUTICS, INC., priority 2021, published 2024).
Read-outs that look alike come from different tables or passages of the source.

Assay: Phase 1 SAD/MAD study: plasma pharmacokinetics of Compound 1a (LC-MS-MS, noncompartmental analysis)
Assay type: in vivo, human
Conditions: for Cmax / Tmax / half-life / AUC(0-t) / AUC(0-inf): human, plasma
Experimental: Pharmacokinetics: Human K2-ethylenediaminetetraacetic acid (K2-EDTA) plasma samples were analyzed for Compound 1a by a validated method over a range of 1.0 to 1000 ng/mL based on the analysis of 100 μL of sample. Human plasma containing Compound 1a and the internal standard, Compound 1a-D4, was extracted using liquid-liquid extraction and analyzed by a Sciex API 4000 LC-MS-MS equipped with an HPLC column. The peak area of the m/z 370.2→298.0 Compound 1a product ion was measured against the peak area of the m/z 374.3→302.4 Compound 1a-D4 internal standard product ion. Quantitation was performed using a weighted 1/x^2 linear least squares regression analysis generated from calibration standards prepared on the day of extraction.
Pharmacokinetic analysis: Pharmacokinetic calculations based on Compound 1a plasma concentrations were performed using noncompartmental analysis in Phoenix WinNonlin (Certara, Princeton, New Jersey). […] Accumulation ratio based on Cmax was calculated as (Cmax,day 7)/(Cmax, day 1).
Subject disposition: Six cohorts of 6 to 8 subjects each (N=up to 48) were administered single doses of 40, 120, 360, 1,000, 2,000, and 3,000 mg of Compound 1a in Part A under fasting conditions. Following a 2-week washout, subjects in the 1,000 mg cohort were administered a second 1,000 mg single dose following a high-fat breakfast. Six cohorts of 8 healthy subjects each were administered multiple doses of 75 mg […] (qd), 125 mg every 12 hours (q12 h), 500 mg q12 h, 500 mg qd, 750 mg qd, and 1,000 mg qd for 7 days in the MAD Part B (FIG. 1).

[1] = po, 40 mg, SAD 40 mg oral, fasted, average
[2] = po, 120 mg, SAD 120 mg oral, fasted, average
[3] = po, 360 mg, SAD 360 mg oral, fasted, average
[4] = po, 1000 mg, SAD 1,000 mg oral, fasted, average
[5] = po, 1000 mg, SAD 1,000 mg oral, fed, average
[6] = po, 2000 mg, SAD 2,000 mg oral, fasted, average
[7] = po, 3000 mg, SAD 3,000 mg oral, fasted, average

Q: Which results are given for `O.O=C([O-])c1nn[nH]c1Oc1ccc(-c2ccc(C3CC(F)(F)C3)cc2)cc1.[Na+]` [Compound 1a, sodium 5-((4′-(3,3-difluorocyclobutyl)-[1,1′-biphenyl]-4-yl)oxy)-1H-1,2,3-triazole-4-carboxylate monohydrate]?
A: Cmax (oral, 1000 mg, single dose 1000 mg, healthy volunteers, geometric mean): 17200 ng/mL; Tmax (oral, 1000 mg, single dose 1000 mg, healthy volunteers, geometric mean (geometric CV %), read-out: Tmax): 2.5 h; half-life (oral, 1000 mg, single dose 1000 mg, healthy volunteers, geometric mean (geometric CV %), read-out: t1/2 (converted)): 28 h; AUC(0-t) (oral, 1000 mg, single dose 1000 mg, healthy volunteers, geometric mean, read-out: AUClast): 184 µg·h/mL; Tmax (oral, 1000 mg, single dose of 1,000 mg, fasted, read-out: average Tmax): 3 h; half-life (oral, 1000 mg, single dose of 1,000 mg, fasted, read-out: t1/2 (converted)): ~26.8 h; Tmax (oral, 1000 mg, single dose of 1,000 mg, fed, read-out: average Tmax): 5.9 h; half-life (oral, 1000 mg, single dose of 1,000 mg, fed, read-out: t1/2 (converted)): ~25.2 h; Cmax (oral, 2000 mg, single dose 2000 mg, healthy volunteers, geometric mean): 25600 ng/mL; Tmax (oral, 2000 mg, single dose 2000 mg, healthy volunteers, geometric mean (geometric CV %), read-out: Tmax): 2.9 h; half-life (oral, 2000 mg, single dose 2000 mg, healthy volunteers, geometric mean (geometric CV %), read-out: t1/2 (converted)): 23 h; AUC(0-t) (oral, 2000 mg, single dose 2000 mg, healthy volunteers, geometric mean, read-out: AUClast): 312 µg·h/mL; Cmax (oral, 3000 mg, single dose 3000 mg, healthy volunteers, geometric mean): 22500 ng/mL; Tmax (oral, 3000 mg, single dose 3000 mg, healthy volunteers, geometric mean (geometric CV %), read-out: Tmax): 2.9 h; half-life (oral, 3000 mg, single dose 3000 mg, healthy volunteers, geometric mean (geometric CV %), read-out: t1/2 (converted)): 34 h; AUC(0-t) (oral, 3000 mg, single dose 3000 mg, healthy volunteers, geometric mean, read-out: AUClast): 225 µg·h/mL; Tmax (oral, single-dose administration of 40 mg to 3,000 mg, read-out: average plasma Tmax values across dose levels): 1.9 to 2.9 h; half-life (oral, single-dose administration of 40 mg to 3,000 mg, read-out: average t1/2 across dose levels): 21.9 to 33.7 h; AUC(0-inf) [1]: 14 µg·h/mL; Cmax [1]: 2040 ng/mL; AUC(0-t) (po, 40 mg, SAD 40 mg oral, fasted, average, read-out: AUC0-24): 12.1 µg·h/mL; Tmax (po, 40 mg, SAD 40 mg oral, fasted, average, read-out: Tmax): 1.89 h; half-life (po, 40 mg, SAD 40 mg oral, fasted, average, read-out: t1/2 (converted)): 24.6 h; AUC(0-inf) [2]: 41.4 µg·h/mL; Cmax [2]: 5020 ng/mL; half-life (po, 120 mg, SAD 120 mg oral, fasted, average, plasma (N = 5), read-out: t1/2 (converted)): 21.9 h; AUC(0-t) (po, 120 mg, SAD 120 mg oral, fasted, average, read-out: AUC0-24): 36.7 µg·h/mL; Tmax (po, 120 mg, SAD 120 mg oral, fasted, average, read-out: Tmax): 2.29 h; AUC(0-inf) [3]: 83.3 µg·h/mL; Cmax [3]: 10500 ng/mL; AUC(0-t) (po, 360 mg, SAD 360 mg oral, fasted, average, read-out: AUC0-24): 74.1 µg·h/mL; Tmax (po, 360 mg, SAD 360 mg oral, fasted, average, read-out: Tmax): 2.28 h; half-life (po, 360 mg, SAD 360 mg oral, fasted, average, read-out: t1/2 (converted)): 25.9 h; AUC(0-inf) [4]: 214 µg·h/mL; Cmax [4]: 19500 ng/mL; AUC(0-t) (po, 1000 mg, SAD 1,000 mg oral, fasted, average, read-out: AUC0-24): 174 µg·h/mL; Tmax (po, 1000 mg, SAD 1,000 mg oral, fasted, average, read-out: Tmax): 3 h; half-life (po, 1000 mg, SAD 1,000 mg oral, fasted, average, read-out: t1/2 (converted)): 26.8 h; AUC(0-inf) [5]: 237 µg·h/mL; Cmax [5]: 14700 ng/mL; AUC(0-t) (po, 1000 mg, SAD 1,000 mg oral, fed, average, read-out: AUC0-24): 180 µg·h/mL; Tmax (po, 1000 mg, SAD 1,000 mg oral, fed, average, read-out: Tmax): 5.86 h; half-life (po, 1000 mg, SAD 1,000 mg oral, fed, average, read-out: t1/2 (converted)): 25.2 h; AUC(0-inf) [6]: 312 µg·h/mL; Cmax [6]: 25600 ng/mL; AUC(0-t) (po, 2000 mg, SAD 2,000 mg oral, fasted, average, read-out: AUC0-24): 253 µg·h/mL; Tmax (po, 2000 mg, SAD 2,000 mg oral, fasted, average, read-out: Tmax): 2.94 h; half-life (po, 2000 mg, SAD 2,000 mg oral, fasted, average, read-out: t1/2 (converted)): 23.4 h; AUC(0-inf) [7]: 226 µg·h/mL; Cmax [7]: 22500 ng/mL; AUC(0-t) (po, 3000 mg, SAD 3,000 mg oral, fasted, average, read-out: AUC0-24): 184 µg·h/mL; Tmax (po, 3000 mg, SAD 3,000 mg oral, fasted, average, read-out: Tmax): 2.94 h; half-life (po, 3000 mg, SAD 3,000 mg oral, fasted, average, read-out: t1/2 (converted)): 33.7 h; Overall exposure, fed versus fasted (food effect) (single dose of 1,000 mg, same cohort, 2-week washout): slightly lower under fed than under fasted conditions
